Laboratory results as given in patent publication USRE45313E1, “Exendin variant peptides” (priority 1999, dated 2014).

What was measured:
[1] = tested on: ob/ob mice; assay: Blood glucose levels in ob/ob mice after peroral and intraperitoneal administration (Example 25); assay type: in vivo
Source text: Forty female diabetic ob/ob mice (Umeä strain, Bomholtgaard), which are obese due to a dominant mutant leptin (Tomita, T., Doull, V., Pollock, H. G., and Krizsan, D. 1992. Pancreatic islets of obese hyperglycemic mice (ob/ob). Pancreas 7: 367-75) were housed (3 mice/cage) under controlled ambient conditions following a 12:12-h light: dark cycle and fed standard Altromin no 1324 diet with free access to tap water. At arrival the animals were 8 weeks of age. The mice were allowed 2 weeks of acclimatization before experiments were initiated. […] Handling of the mice one and three days before the experiment was performed in order to reduce stress-induced BG excursions. On the day of the experiment, blood was taken from the tip of the tail 2-3 hours after the light was turned on. A single drop of blood (<5 μl) was dropped on the glucose strip for analysis and measured by an Elite Autoanalyser, Bayer, Denmark. Whole blood glucose (BG) concentration was analysed by the immobilised glucose oxidase method. […] Six animals with BG <5.8 mM were excluded from the study (total n=36). The remaining animals were stratified based on their BG levels in order to ensure that the mean BG was similar among groups.
Various concentrations of each peptide are administered orally and intraperitoneally to ob/ob mice to determine if these compounds affect blood glucose levels. The experimental conditions used were the same as described in Example 24.
Solutions are prepared on the morning of dosing, immediately before the animals are administered. The same solutions are used for both peroral and interperitoneal administration. All peptides are dissolved in sterile isotonic NaCl and given in a volume of 0.2 ml. As negative control, saline is administered perorally.
In order to analyse the effects of the compounds, the absolute and the relative (% of t=0) difference from baseline was calculated for each time point.

[2] = in vivo
Experimental: Compound 4 (batch No. ZP 7.97-5-F, 4053 g/mol) and Compound (iii) (batch No. ZP 7.73-2-G, 3854 g/mol) were synthesised in-house using the Fmoc strategy.
Plasma (250 μl) was transferred to ice-chilled 0.75 ml PLC vials containing 250 μl extraction solution (MeCN: 0.18 M Ammonium Carbonate pH 9.5, 10:90 v/v). The plasma samples were stored at −20 C until SPE and LC/MS analysis.

[3] = In vivo pharmacokinetics after i.v. administration to rabbits; details: iv; for half-life: New Zealand White, rabbit, in vivo, 1000 nmol/kg, iv 1000 nmol/kg, mean
Experimental: In order to establish whether this effect is sustained in vivo, the pharmacokinetic parameters of the two compounds are examined in rabbits.
Compound 4 (batch No. ZP 7.97-5-F, 4053 g/mol) and Compound (iii) (batch No. ZP 7.73-2-G, 3854 g/mol) were synthesised in-house using the Fmoc strategy. […] The peptides were dissolved in pyrogen free isotonic saline and both peptides were administered i.v. to rabbits and rats using a dose of 1000 nmol/kg.
Fifteen New Zealand White rabbits weighing 2.5 to 3.0 kg were used for the experiment. On the day of the experiment, the rabbits were anaesthetised with Hypnorm® i.m. followed by Dormicum® i.v., Catheters were inserted into the femoral vein and artery for i.v. administration of drugs and arterial blood sampling. The rabbits stayed unconscious throughout the experiment.
Blood samples were collected at t−1, 3, 5, 10, 15, 20, 30, 40, 60, 90, 120, 150, 180, and 240 min. The blood was collected in EDTA containing ice-chilled tubes and immediately centrifuged at 4 C for 5 min (20.000×g). Plasma (250 μl) was transferred to ice-chilled 0.75 ml PLC vials containing 250 μl extraction solution (MeCN: 0.18 M Ammonium Carbonate pH 9.5, 10:90 v/v). The plasma samples were stored at −20 C until SPE and LC/MS analysis.
The drug containing plasma samples (400 μl) are loaded onto OASIS™ HLB (Compound 4) or ISOLUTE™ (Compound (iii)) solid phase extraction columns preconditioned with 950 μl MeCN followed by 950 μl water. The columns are washed with 950 μl 2% TFA in water followed by an equal volume of 2% TFA in MeCN:water (20:78 v/v). The analytes are eluted with 500 μl 2% TFA in MeCN:water (60:38 v/v) and analysed by LC/MS.
The samples were kept at 18 C in the auto sampler tray prior to injection of 20 to 50 μl onto the LC column (Vydac 218MS52 (2.1×250 mm). The separations were performed at 30° C. using a flow rate of 250 μl/min and a gradient according to the table below. Both the test compound and the reference drug are detected by single ion recording (SIR) using the m/z=676.7 and the m/z=1095.2 and 821.8 ion species, respectively. All instrument conditions were controlled by MassLynx software ver. 3.3 software.
The plasma samples were analysed as described under materials and methods and the plasma concentration (Cpl) plotted versus time in a semi log diagram. The plasma concentration were followed for three hours in rabbits, whereas the limited blood volume of rats restricted the blood sampling in this specie to one hour. The Cpl vs. time curves from the individual rabbits were fitted to a two-compartment open model (figure not shown) using 1/y^2 weighted least squares in WinNonlin 3.1 (Pharsight Corp. (Mountain View, Calif.)).
Table 5: The pharmacokinetic constants were obtained from rabbits when the Cpl vs. time curves was fitted mathematically. The compounds were administered iv in a concentration of 1000 nmol/kg. T1/2 values are given in minutes (min) for the a and P phase.

Structure (SMILES)	blood glucose relative to baseline ([1]; 1 μg po, 1 hour)	blood glucose relative to baseline ([1]; 1 μg po, 2 hours)	blood glucose relative to baseline ([1]; 1 μg po, 4 hours)	blood glucose relative to baseline ([1]; 10 μg po, 1 hour)	blood glucose relative to baseline ([1]; 10 μg po, 2 hours)	blood glucose relative to baseline ([1]; 10 μg po, 4 hours)	blood glucose relative to baseline ([1]; 100 μg ip, 1 hour)	blood glucose relative to baseline ([1]; 100 μg ip, 2 hours)	blood glucose relative to baseline ([1]; 100 μg ip, 4 hours)	blood glucose relative to baseline ([1]; 100 μg po, 1 hour)	blood glucose relative to baseline ([1]; 100 μg po, 2 hours)	blood glucose relative to baseline ([1]; 100 μg po, 4 hours)	blood glucose relative to baseline ([1]; 1000 μg po, 1 hour)	blood glucose relative to baseline ([1]; 1000 μg po, 2 hours)	blood glucose relative to baseline ([1]; 1000 μg po, 4 hours)	half-life ([3]; T1/2, α) [min]	half-life ([3]; T1/2, β) [min]	also measured
CC[C@H](C)[C@H](NC(=O)[C@H](Cc1ccccc1)NC(=O)[C@H](CCC(=O)O)NC(=O)[C@H](CCCCN)NC(=O)[C@H](C)NC(=O)[C@H](C)NC(=O)[C@H](CCC(N)=O)NC(=O)CNC(=O)[C@H](CCC(=O)O)NC(=O)[C@H](CC(C)C)NC(=O)[C@H](Cc1ccc(O)cc1)NC(=O)[C@H](CO)NC(=O)[C@H](CO)NC(=O)[C@@H](NC(=O)[C@H](CC(=O)O)NC(=O)[C@H](CO)NC(=O)[C@@H](NC(=O)[C@H](Cc1ccccc1)NC(=O)[C@@H](NC(=O)CNC(=O)[C@H](CCC(=O)O)NC(=O)CNC(=O)[C@@H](N)Cc1c[nH]cn1)[C@@H](C)O)[C@@H](C)O)C(C)C)C(=O)N[C@@H](C)C(=O)N[C@@H](Cc1c[nH]c2ccccc12)C(=O)N[C@@H](CC(C)C)C(=O)N[C@H](C(=O)N[C@@H](CCCCN)C(=O)NCC(=O)N[C@@H](CCCNC(=N)N)C(=O)N[C@@H](CCCCN)C(=O)N[C@@H](CCCCN)C(=O)N[C@@H](CCCCN)C(=O)N[C@@H](CCCCN)C(=O)N[C@@H](CCCCN)C(=O)N[C@@H](CCCCN)C(N)=O)C(C)C [Compound 4]	99 % of t=0	89 % of t=0	84 % of t=0	98 % of t=0	95 % of t=0	81 % of t=0	83 % of t=0	58 % of t=0	56 % of t=0	72 % of t=0	70 % of t=0	58 % of t=0	128 % of t=0	72 % of t=0	78 % of t=0	6.8	28	detected in the plasma samples (rats) ([2]; intra duodenal administration of 1.000 nmol/kg): two out of four rats; detected in the plasma samples (rats) ([2]; intra duodenal administration of 10.000 nmol/kg): four out of five rats; T½ value relative to the unconjugated peptide ([3]; Table 5): approximately three times
CCCCCCCCCCCCCCCC(=O)NCCCC[C@H](NC(=O)[C@H](CCCNC(=N)N)NC(=O)CNC(=O)[C@H](CCCCN)NC(=O)[C@@H](NC(=O)[C@H](CC(C)C)NC(=O)[C@H](Cc1c[nH]c2ccccc12)NC(=O)[C@H](C)NC(=O)[C@@H](NC(=O)[C@H](Cc1ccccc1)NC(=O)[C@H](CCC(=O)O)NC(=O)[C@H](CCCCN)NC(=O)[C@H](C)NC(=O)[C@H](C)NC(=O)[C@H](CCC(N)=O)NC(=O)CNC(=O)[C@H](CCC(=O)O)NC(=O)[C@H](CC(C)C)NC(=O)[C@H](Cc1ccc(O)cc1)NC(=O)[C@H](CO)NC(=O)[C@H](CO)NC(=O)[C@@H](NC(=O)[C@H](CC(=O)O)NC(=O)[C@H](CO)NC(=O)[C@@H](NC(=O)[C@H](Cc1ccccc1)NC(=O)[C@@H](NC(=O)CNC(=O)[C@H](CCC(=O)O)NC(=O)CNC(=O)[C@@H](N)Cc1c[nH]cn1)[C@@H](C)O)[C@@H](C)O)C(C)C)[C@@H](C)CC)C(C)C)C(=O)N[C@@H](CCCCN)C(=O)N[C@@H](CCCCN)C(=O)N[C@@H](CCCCN)C(=O)N[C@@H](CCCCN)C(=O)N[C@@H](CCCCN)C(=O)N[C@@H](CCCCN)C(N)=O [Compound 5]	111 % of t=0	133 % of t=0	114 % of t=0	90 % of t=0	120 % of t=0	126 % of t=0	63 % of t=0	50 % of t=0	52 % of t=0	97 % of t=0	140 % of t=0	107 % of t=0	73 % of t=0	75 % of t=0	67 % of t=0	–	–	–
CC[C@H](C)[C@H](NC(=O)[C@H](Cc1ccccc1)NC(=O)[C@H](CCC(=O)O)NC(=O)[C@H](CCCCN)NC(=O)[C@H](C)NC(=O)[C@H](C)NC(=O)[C@H](CCC(N)=O)NC(=O)CNC(=O)[C@H](CCC(=O)O)NC(=O)[C@H](CC(C)C)NC(=O)[C@H](Cc1ccc(O)cc1)NC(=O)[C@H](CO)NC(=O)[C@H](CO)NC(=O)[C@@H](NC(=O)[C@H](CC(=O)O)NC(=O)[C@H](CO)NC(=O)[C@@H](NC(=O)[C@H](Cc1ccccc1)NC(=O)[C@@H](NC(=O)CNC(=O)[C@H](CCC(=O)O)NC(=O)CNC(=O)[C@@H](N)Cc1cnc[nH]1)[C@@H](C)O)[C@@H](C)O)C(C)C)C(=O)N[C@@H](C)C(=O)N[C@@H](Cc1c[nH]c2ccccc12)C(=O)N[C@@H](CC(C)C)C(=O)N[C@H](C(=O)N[C@@H](CCCCN)C(=O)NCC(=O)N[C@@H](CCCNC(=N)N)C(N)=O)C(C)C [Compound (iii), reference compound]	–	–	–	–	–	–	–	–	–	–	–	–	–	–	–	2.3	10.8	level at time molar ([2]; Sprague-Dawley, rat, plasma, 10 nmol/kg): < 0.5 nM
